Drawing on patent publication US9453028B2, “Protein kinase C inhibitors and uses thereof” (Rigel Pharmaceuticals, Inc., priority 2009, dated 2016), this text covers IC50 for five compounds.

In general, IC50 refers to the concentration needed to halve the response being measured.

One experiment deals with T1, PKC-delta (Homo sapiens, UniProt Q05655).
T1 construct: purchased Oxford Biomedical Research
The experiment in a line: Protein Kinase C assay (fluorescence polarization), PKC-delta. It is filed as biochemical. The method, then: (§1) The inhibition of PKC activity was measured by monitoring the production of phosphorylated peptide by fluorescence polarization at different concentrations of the inhibitor. Reactions were carried out in 96-well plate format with a total volume of 20 μL containing 20 mM HEPES, pH 7.4, 5 mM MgCl2, 0.2 mM CaCl2, 1 mM DTT, 0.02% Brij-35, 0.1 mg/mL phosphatidylserine, 0.02 mg/mL dioleoyl-sn-glycerol and 5 μM each of ATP and the peptide substrate. Compounds were first diluted serially in DMSO and then transferred to a solution containing the above concentrations of HEPES, MgCl2, CaCl2, DTT, and Brij-35 to yield 5× compound solutions in 2% DMSO, which was then added to the reaction solution. Reactions were initiated by the addition of PKC at a typical concentration as described in the table below, and then allowed to incubate at room temperature for 20 minutes. At the end of this time, a combination of quench (EDTA) and detection (peptide tracer and antibody) reagents was added using the protocol of Invitrogen P2748 (Carlsbad, Calif.), a Protein Kinase C Fluorescence polarization Assay Kit. After a 30 minute period of incubation, the amount of phosphorylated peptide generated was measured by fluorescence polarization (Ex=485 nm, Em=535 nm) using a Tecan Polarian instrument (Switzerland).
Human recombinant PKC δ is obtained from Oxford Biomedical Research and is used under the assay conditions as described under Section A.1 above.
(§2) Several subject compounds were tested according to procedures in the “Characterization of Functional Properties” section. PKC kinase activity was measured using the procedure Section A.1 (Protein Kinase C assay) with the appropriate isoform. The whole cell assay was run according to the procedure in Section A.2 (IL-2 ELISA, Human primary T cell, anti-CD3+CD28+ Assays). […] Blank entries indicate that the IC50 was not determined.
(Fluorescence polarisation rises when a labelled molecule tumbles more slowly, as on binding a larger partner.)

A further experiment addresses T2, PKC-epsilon (Homo sapiens, UniProt Q02156).
T2 construct: purchased Upstate Biotechnologies, Temecula, CA 14-518
T2 sequence (Q02156 1-737): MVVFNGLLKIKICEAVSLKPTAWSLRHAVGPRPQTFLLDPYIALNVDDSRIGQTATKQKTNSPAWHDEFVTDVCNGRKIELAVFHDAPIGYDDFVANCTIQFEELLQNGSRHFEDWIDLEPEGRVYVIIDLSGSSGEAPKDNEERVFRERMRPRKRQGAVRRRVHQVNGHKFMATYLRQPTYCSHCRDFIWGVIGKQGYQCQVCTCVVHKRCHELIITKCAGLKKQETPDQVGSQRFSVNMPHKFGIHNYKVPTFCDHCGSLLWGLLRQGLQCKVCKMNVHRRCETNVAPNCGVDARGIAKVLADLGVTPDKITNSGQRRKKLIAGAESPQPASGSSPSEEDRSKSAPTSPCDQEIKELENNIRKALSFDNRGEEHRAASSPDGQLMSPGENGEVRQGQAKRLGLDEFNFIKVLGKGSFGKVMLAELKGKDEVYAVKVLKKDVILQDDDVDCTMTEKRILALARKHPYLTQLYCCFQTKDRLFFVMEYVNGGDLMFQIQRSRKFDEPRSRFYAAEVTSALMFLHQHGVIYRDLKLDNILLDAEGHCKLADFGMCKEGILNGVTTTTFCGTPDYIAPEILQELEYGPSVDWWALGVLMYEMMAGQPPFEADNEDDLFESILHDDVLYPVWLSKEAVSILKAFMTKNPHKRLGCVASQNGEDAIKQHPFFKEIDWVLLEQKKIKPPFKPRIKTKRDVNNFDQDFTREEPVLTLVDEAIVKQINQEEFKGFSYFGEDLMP
In words: Protein Kinase C assay (fluorescence polarization), PKC-epsilon. It is filed as biochemical. The protocol:
as §1
Human recombinant PKC […] is obtained from Oxford Biomedical Research and is used under the assay conditions as described under Section A.1 above.
as §2

In a further experiment the target is T3, PKC-beta (Homo sapiens, UniProt P05771).
T3 construct: purchased Oxford Biomedical Research
The experiment in a line: Protein Kinase C assay (fluorescence polarization), PKC-beta. It is filed as biochemical. The method, then: as §1
Human recombinant PKC β1 is obtained from Oxford Biomedical Research and is used under the assay conditions as described under Section A.1 above.
as §2

In a further experiment the test system is Human primary T cell. In words: IL-2 ELISA, human primary T cell, anti-CD3+CD28+ whole cell assay. It is filed as cell-based. The settings on record: IL-2 by ELISA, human primary T cells stimulated with anti-CD3+CD28. The protocol: 2. IL-2 ELISA, Human Primary T Cell, Anti-CD3+CD28+ Assays
Human primary T cells were prepared as follows. Whole blood was obtained from a healthy volunteer, mixed 1:1 with PBS, layered on to Ficoll Hypaque (Amersham Pharmacia Biotech, Piscataway, N.J., Catalog #17-1440-03) in 2:1 blood/PBS:ficoll ratio and centrifuged for 30 minutes at 4° C. at 1750 rpm. The cells at the serum:ficoll interface were recovered and washed twice with 5 volumes of PBS. These freshly isolated human peripheral blood mononuclear cells were cultured in Yssel's medium containing 40 U/mL IL2 in a flask pre-coated with 1 μg/mL αCD3 and 5 μg/mL αCD28 (Anti-Human CD3, BD Pharmingen Catalog #555336, Anti-Human CD28, Beckman Coulter Catalog #1M1376). The cells were stimulated for 3-4 days, then transferred to a fresh flask and maintained in RPMI (RPMI-1640 with L-Glutamine; Mediatech, Inc., Herndon Va., cat. #10-040-CM) with 10% FBS and 40 U/mL IL-2. The primary T-cells were then washed twice with PBS to remove the IL-2.
Human primary T cells (100,000 cells per well) were pre-incubated with or without test compound in Yssel's medium for 1 hr at 37° C. Cells were then stimulated by transferring them to round-bottom 96-well plates pre-coated with 1 μg/ml αCD3 and 5 μg/ml αCD28. For counter assay, cells were instead stimulated by adding 8× stock solutions of PMA and ionomycin in Yssels (for final concentrations of 0.5 ng/ml PMA and 0.1 μM ionomycin, both from Calbiochem). Cells were incubated at 37° C. for 24 hours before 100 μL supernatants were harvested for quantification of IL-2 by ELISA using Human IL-2 Duoset ELISA Kit from R and D Systems, Cat. # DY202E.
as §2
On the technique in general: ELISA stands for enzyme-linked immunosorbent assay.

A further experiment addresses T4, PKC-theta (Homo sapiens, UniProt Q04759).
T4 construct: purchased Upstate Biotechnologies, Temecula, CA 14-444
The experiment in a line: Protein Kinase C assay (fluorescence polarization), PKC-theta. It is filed as biochemical. The method, then:
as §1
Human recombinant PKC θ is used under the assay conditions as described above.
as §2

The next experiment has as its target T5, PKC-alpha (Homo sapiens, UniProt P17252).
T5 construct: purchased Oxford Biomedical Research
In words: Protein Kinase C assay (fluorescence polarization), PKC-alpha. It is filed as biochemical. The protocol:
as §1
Human recombinant PKC α is obtained from Oxford Biomedical Research and is used under the assay conditions as described under Section A.1 above.
as §2

T3 sequence (P05771 whole entry): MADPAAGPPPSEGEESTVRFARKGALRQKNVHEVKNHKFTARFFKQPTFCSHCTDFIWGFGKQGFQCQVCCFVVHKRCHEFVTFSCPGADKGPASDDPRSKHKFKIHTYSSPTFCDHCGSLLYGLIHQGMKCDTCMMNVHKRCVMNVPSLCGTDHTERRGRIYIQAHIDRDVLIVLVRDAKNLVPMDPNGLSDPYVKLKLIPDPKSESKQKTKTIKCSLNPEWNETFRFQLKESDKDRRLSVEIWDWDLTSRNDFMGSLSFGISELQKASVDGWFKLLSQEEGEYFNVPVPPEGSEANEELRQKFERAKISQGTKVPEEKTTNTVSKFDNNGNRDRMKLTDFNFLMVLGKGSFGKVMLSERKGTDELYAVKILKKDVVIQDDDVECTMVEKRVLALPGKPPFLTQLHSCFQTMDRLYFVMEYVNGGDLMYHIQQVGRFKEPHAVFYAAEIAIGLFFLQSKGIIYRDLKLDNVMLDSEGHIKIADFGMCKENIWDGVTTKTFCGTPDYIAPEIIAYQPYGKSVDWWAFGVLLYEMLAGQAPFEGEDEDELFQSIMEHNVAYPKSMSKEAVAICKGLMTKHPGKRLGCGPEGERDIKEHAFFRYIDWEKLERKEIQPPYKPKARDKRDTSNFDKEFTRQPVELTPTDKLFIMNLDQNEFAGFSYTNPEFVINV
T1 sequence (Q05655 whole entry): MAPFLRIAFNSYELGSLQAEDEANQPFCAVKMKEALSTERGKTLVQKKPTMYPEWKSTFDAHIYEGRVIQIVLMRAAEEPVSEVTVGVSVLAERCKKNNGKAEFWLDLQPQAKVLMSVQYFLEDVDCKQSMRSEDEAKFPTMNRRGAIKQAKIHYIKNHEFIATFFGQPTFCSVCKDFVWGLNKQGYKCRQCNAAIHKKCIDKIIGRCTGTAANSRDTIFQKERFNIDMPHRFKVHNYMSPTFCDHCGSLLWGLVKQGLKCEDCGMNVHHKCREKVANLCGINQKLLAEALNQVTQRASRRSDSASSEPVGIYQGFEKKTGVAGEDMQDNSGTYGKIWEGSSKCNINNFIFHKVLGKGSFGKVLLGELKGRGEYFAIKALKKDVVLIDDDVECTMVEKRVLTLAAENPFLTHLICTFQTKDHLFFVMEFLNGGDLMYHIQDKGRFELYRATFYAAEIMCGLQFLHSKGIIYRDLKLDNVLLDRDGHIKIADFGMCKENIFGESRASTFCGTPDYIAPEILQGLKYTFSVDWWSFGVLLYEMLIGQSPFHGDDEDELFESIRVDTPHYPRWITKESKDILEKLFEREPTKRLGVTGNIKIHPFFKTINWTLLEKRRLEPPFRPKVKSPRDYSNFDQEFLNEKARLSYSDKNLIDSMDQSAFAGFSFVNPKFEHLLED
T4 sequence (Q04759 whole entry): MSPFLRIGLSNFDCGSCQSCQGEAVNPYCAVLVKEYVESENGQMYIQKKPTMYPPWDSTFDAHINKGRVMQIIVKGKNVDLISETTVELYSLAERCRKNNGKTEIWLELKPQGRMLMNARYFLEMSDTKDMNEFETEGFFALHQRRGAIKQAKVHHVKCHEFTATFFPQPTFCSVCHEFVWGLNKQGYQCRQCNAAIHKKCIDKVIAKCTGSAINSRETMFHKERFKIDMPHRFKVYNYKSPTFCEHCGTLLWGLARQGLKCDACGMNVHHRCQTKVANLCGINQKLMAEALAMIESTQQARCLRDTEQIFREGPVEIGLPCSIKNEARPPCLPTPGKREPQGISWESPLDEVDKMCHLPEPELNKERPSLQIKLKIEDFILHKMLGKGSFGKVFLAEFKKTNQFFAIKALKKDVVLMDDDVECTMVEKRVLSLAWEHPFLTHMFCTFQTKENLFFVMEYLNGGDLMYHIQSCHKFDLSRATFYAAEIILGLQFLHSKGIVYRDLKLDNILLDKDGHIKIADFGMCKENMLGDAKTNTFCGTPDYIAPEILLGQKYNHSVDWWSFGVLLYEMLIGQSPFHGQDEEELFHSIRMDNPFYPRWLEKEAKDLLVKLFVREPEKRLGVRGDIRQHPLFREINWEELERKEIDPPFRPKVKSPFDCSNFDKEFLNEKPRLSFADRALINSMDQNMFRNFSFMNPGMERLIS

Turning to `CC1Oc2ccc(Nc3ncc(F)c(NC4CC(C)(C)N(C)C(C)(C)C4)n3)cc2-n2nnnc21` (stereo not drawn) [Compound 1-18], the IC50 at PKC-delta, on PKC-epsilon, at PKC-beta, with Human primary T cell (T-cell), on PKC-theta and on PKC-alpha was below 250 nM in each case.

As for `CC1(C)CC(CNc2nc(Nc3ccc4c(c3)-n3nnnc3CO4)ncc2F)C(C)(C)N1` (stereo not drawn) [Compound 2-1, N2-(4H-benzo[b]tetrazolo[1,5-d][1,4]oxazin-8-yl)-5-fluoro-N4-((2,2,5,5-tetramethylpyrrolidin-3-yl)methyl)pyrimidine-2,4-diamine], the 50% inhibitory concentration (IC50) at PKC-delta, at PKC-epsilon, at PKC-beta, in the experiment on Human primary T cell (T-cell), on PKC-theta and on PKC-alpha was below 250 nM each time.

`CN1C(C)(C)CC(CNc2nc(Nc3ccc4c(c3)-n3nnnc3CO4)ncc2F)C1(C)C` (stereo not drawn) [Compound 2-2, N2-(4H-benzo[b]tetrazolo[1,5-d][1,4]oxazin-8-yl)-5-fluoro-N4-((1,2,2,5,5-pentamethylpyrrolidin-3-yl)methyl)pyrimidine-2,4-diamine]: the half-maximal inhibitory concentration (IC50) on PKC-delta, on PKC-epsilon, on PKC-beta, with Human primary T cell (T-cell), at PKC-theta and at PKC-alpha was below 250 nM throughout.

Take `CC1C[C@@H](CNc2nc(Nc3ccc4c(c3)-n3nnnc3C(C)(C)O4)ncc2F)C(C)(C)N1` (stereo partly drawn) [Compound 2-7, N2-(4,4-dimethyl-4H-benzo[b]tetrazolo[1,5-d][1,4]oxazin-8-yl)-5-fluoro-N4-(((3S)-2,2,5-trimethylpyrrolidin-3-yl)methyl)pyrimidine-2,4-diamine]: the IC50 at PKC-delta, on PKC-epsilon, on PKC-beta, in the experiment with Human primary T cell, on PKC-theta and at PKC-alpha was below 250 nM each time.

`CC1C[C@H](CNc2nc(Nc3ccc4c(c3)-n3nnnc3C(C)(C)O4)ncc2F)C(C)(C)N1` (stereo partly drawn) [Compound 2-8, N2-(4,4-dimethyl-4H-benzo[b]tetrazolo[1,5-d][1,4]oxazin-8-yl)-5-fluoro-N4-(((3R)-2,2,5-trimethylpyrrolidin-3-yl)methyl)pyrimidine-2,4-diamine]: the IC50 was below 250 nM at PKC-delta; below 250 nM at PKC-epsilon; 250 to 500 nM on PKC-beta; 250 to 500 nM in the experiment on Human primary T cell; below 250 nM at PKC-theta; below 250 nM on PKC-alpha.
